Measured values taken from article PMC6814236, “Monitoring and characterizing soluble and membrane-bound ectonucleotidases CD73 and CD39” (PLoS ONE, 2019).

Tests used:
[1] = target: T1, Recombinant Human 5'-Nucleotidase/CD73 (Homo sapiens, UniProt P21589); test: Enzyme activity of purified CD73 (AMP-Glo assay); type: biochemical
T1 construct: purchased R&D Systems
T1 sequence (P21589 27-574): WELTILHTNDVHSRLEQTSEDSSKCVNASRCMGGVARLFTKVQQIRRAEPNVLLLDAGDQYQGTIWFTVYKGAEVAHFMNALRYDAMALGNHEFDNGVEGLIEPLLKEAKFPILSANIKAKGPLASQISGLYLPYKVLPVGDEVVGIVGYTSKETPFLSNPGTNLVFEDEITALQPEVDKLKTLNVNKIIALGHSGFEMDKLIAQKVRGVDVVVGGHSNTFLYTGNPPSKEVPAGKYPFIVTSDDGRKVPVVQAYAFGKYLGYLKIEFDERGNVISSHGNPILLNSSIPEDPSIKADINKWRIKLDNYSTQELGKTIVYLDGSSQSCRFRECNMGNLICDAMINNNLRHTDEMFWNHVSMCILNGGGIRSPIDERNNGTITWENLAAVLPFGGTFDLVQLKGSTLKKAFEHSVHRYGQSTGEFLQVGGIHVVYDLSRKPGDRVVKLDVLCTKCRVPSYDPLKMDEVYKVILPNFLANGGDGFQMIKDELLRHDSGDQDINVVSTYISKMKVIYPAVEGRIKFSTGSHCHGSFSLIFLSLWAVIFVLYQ
Experimental: • Determination of enzyme activity of purified CD73. In a 25 μl reaction buffer (10mM HEPES, pH 7.4, 2mM MgCl2, 1mM CaCl2, and 0.1mg/ml BSA) containing enzyme and AMP substrate at 1μM to 10μM (96-well format), enzyme activity was performed at 23°C for specified time period and terminated by the addition of equal volume (25μl) of AMP-Glo™ Reagent I containing 50 μM (final concentration) of known CD73 inhibitor, such as AMPCP. Reactions were mixed well and incubated for additional 30 min at 23°C. This was followed by the addition of 50 μl of AMP Detection Solution (10μl of AMP-Glo™ Reagent II per ml of Kinase-Glo® One Solution) and incubated for additional 60 min at 23°C before reading luminescence.

[2] = target: T2, CD39 (His-Tag Human) (Homo sapiens, UniProt P49961); test: Enzyme activity of purified CD39 with ATP or ADP as substrate; type: biochemical; conditions: 0.1ng CD39, 10 μM ATP or 10 μM ADP, 30min at 37°C
T2 construct: His; purchased R&D Systems
T2 sequence (P49961 1-510): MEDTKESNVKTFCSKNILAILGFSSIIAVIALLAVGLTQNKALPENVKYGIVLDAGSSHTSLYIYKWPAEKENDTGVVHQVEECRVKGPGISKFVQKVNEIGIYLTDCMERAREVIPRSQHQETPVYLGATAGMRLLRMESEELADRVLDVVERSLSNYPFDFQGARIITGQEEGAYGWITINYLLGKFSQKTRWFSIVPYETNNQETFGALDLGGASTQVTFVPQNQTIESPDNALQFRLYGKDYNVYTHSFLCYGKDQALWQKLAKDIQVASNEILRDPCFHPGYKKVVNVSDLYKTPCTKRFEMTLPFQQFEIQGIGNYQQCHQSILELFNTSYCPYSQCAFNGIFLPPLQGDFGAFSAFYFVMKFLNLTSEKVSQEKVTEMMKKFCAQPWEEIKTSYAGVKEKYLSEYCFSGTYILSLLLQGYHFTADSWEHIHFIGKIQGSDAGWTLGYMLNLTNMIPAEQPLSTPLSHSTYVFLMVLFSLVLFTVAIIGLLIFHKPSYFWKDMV
Experimental: • 2 Determination of enzyme activity of purified cytosolic cN-II. Activity of purified cN-II (Human cytosolic 5'-Nucleotidase) was determined using 25μl reaction buffer (50mM HEPES, pH 7.0, 100mM KCl, 20mM MgCl2, 5mM DTT, 2.5mM dATP, and 0.1mg/ml BSA) containing enzyme and AMP substrate at 10μM (96-well format). Reaction continued at 37°C for 60 minutes or for a certain time period and terminated by the addition of equal volume (25μl) of AMP-Glo™ Reagent I. Reactions were mixed well and incubated for additional 30 min at 23°C. This was followed by the addition of 50 μl of AMP Detection Solution (10μl of AMP-Glo™ Reagent II per ml of Kinase-Glo® One Solution) and incubated for additional 60 min at 23°C before reading luminescence. • 3 Determination of enzyme activity of purified CD39. […] When ATP is used as a substrate, an equal volume of Kinase-Glo® One Solution was added to CD39 reactions and incubated for 15 min before reading luminescence using a luminometer. When ADP is used as a substrate for CD39, after enzyme reaction completion, an equal volume of AMP Detection Solution with a known CD39 known inhibitor, such as POM 1 at 50μM final concentration was added. Reactions were mixed well and incubated for 60min before reading luminescence using luminometer. For enzyme dilution, reaction buffer can be used for dilution of enzymes.

Compound	Km ([1]; 0.01ng CD73 per reaction, varying AMP, 5min at 23°C) [µM]	effect on CD73 enzyme activity ([1]; purified CD73, 0.1ng, 1μM AMP, 5 min at 23°C (Fig 6))	inhibitory effect on purified CD39 [2]
Nc1ncnc2c1ncn2[C@@H]1O[C@H](COP(=O)(O)O)[C@@H](O)[C@H]1O [AMP, adenosine monophosphate]	2.53	–	–
CCN(CC)c1ncnc2c1ncn2[C@@H]1O[C@H](COP(=O)(O)OP(=O)(O)C(Br)(Br)P(=O)(O)O)[C@@H](O)[C@H]1O.[Na+].[Na+].[Na+] [ARL 67156, 6-N,N-Diethyl-D-β,γ-dibromomethyleneATP trisodium salt]	–	no effect	inhibited
